Experimental data as given in paper PMC3776780, “Dual p38/JNK Mitogen Activated Protein Kinase Inhibitors Prevent Ozone-Induced Airway Hyperreactivity in Guinea Pigs” (PLoS ONE, 2013).
Where two headings read alike, the source gives them in different places.

Tests used:
Assay in all cases: spectrophotometric coupled-enzyme kinase inhibition assay
Format in all cases: biochemical
GSK3β = GSK3β (Homo sapiens, UniProt P49841)
Procedure: (§1) Affinity was measured using a kinase inhibition assay. Compounds were assayed for the inhibition of various kinases using a modification of a spectrophotometric coupled-enzyme assay. In this assay, a fixed concentration of activated kinase (10–40 nM) was incubated with various concentrations of a potential inhibitor dissolved in DMSO for 10 minutes at 30°C in a buffer containing 0.1 M HEPES, pH 7.5, containing 10 mM MgCl2, 2.5 mM phosphoenolpyruvate, 200 µM NADH, 2 mM DTT, 30 µg/mL pyruvate kinase, 10 µg/mL lactate dehydrogenase, and 200 µM–500 µM EGF receptor peptide. The EGF receptor peptide has the sequence […]. The reaction was initiated by the addition of ATP equal to the ATP Km of the kinase, and the assay plate is inserted into the spectrophotometer’s assay plate compartment that was maintained at 30°C. The decrease of absorbance at 340 nm was monitored as a function of time for 10 minutes. The rate data as a function of inhibitor concentration was either fit as an IC50 or to a competitive inhibition kinetic model to determine the compound Ki (see table 1).

MKK4 = biological target: T1, MKK4 (Homo sapiens, UniProt P45985); conditions: read-out: Ki or IC50 MKK4
T1 sequence (P45985 1-399): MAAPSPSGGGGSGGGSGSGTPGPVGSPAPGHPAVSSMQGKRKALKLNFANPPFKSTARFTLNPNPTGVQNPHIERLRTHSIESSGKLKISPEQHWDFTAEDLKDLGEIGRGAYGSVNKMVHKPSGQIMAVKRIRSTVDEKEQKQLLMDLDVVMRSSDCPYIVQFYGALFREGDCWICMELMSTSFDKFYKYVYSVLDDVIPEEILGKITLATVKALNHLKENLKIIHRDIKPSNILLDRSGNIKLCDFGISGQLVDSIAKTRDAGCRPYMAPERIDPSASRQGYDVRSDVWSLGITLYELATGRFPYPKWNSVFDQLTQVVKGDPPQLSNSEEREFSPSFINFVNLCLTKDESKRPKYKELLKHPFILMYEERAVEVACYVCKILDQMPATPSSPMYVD
Procedure: as §1

MKK6 = biological target: T2, MKK6 (Homo sapiens, UniProt P52564); conditions: read-out: Ki or IC50 MKK6
T2 sequence (P52564 1-334): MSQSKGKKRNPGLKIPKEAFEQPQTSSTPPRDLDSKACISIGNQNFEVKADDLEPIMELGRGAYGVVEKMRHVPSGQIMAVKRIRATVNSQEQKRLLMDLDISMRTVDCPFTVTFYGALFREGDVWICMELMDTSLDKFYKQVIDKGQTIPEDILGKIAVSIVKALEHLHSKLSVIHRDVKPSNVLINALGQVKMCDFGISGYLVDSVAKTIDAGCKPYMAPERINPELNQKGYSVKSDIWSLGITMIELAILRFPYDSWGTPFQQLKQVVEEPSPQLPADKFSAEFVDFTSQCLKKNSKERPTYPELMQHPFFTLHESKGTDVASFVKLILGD
Procedure: as §1

ERK2 = ERK2 (Homo sapiens, UniProt P28482); conditions: read-out: Ki or IC50 ERK2
ERK2, sequence (P28482 whole entry, species assumed): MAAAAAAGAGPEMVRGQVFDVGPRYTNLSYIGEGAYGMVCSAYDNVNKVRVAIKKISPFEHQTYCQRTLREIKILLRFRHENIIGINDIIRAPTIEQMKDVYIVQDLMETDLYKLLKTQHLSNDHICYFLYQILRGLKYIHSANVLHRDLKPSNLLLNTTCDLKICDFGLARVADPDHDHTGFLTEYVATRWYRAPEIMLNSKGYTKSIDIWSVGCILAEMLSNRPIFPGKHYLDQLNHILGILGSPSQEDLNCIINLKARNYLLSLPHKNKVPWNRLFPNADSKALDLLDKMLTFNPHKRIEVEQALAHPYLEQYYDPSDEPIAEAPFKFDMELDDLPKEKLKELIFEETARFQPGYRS
Procedure: as §1

AKT3 = AKT3 (Homo sapiens, UniProt Q9Y243); conditions: read-out: Ki or IC50 AKT3
AKT3, sequence (Q9Y243 whole entry, species assumed): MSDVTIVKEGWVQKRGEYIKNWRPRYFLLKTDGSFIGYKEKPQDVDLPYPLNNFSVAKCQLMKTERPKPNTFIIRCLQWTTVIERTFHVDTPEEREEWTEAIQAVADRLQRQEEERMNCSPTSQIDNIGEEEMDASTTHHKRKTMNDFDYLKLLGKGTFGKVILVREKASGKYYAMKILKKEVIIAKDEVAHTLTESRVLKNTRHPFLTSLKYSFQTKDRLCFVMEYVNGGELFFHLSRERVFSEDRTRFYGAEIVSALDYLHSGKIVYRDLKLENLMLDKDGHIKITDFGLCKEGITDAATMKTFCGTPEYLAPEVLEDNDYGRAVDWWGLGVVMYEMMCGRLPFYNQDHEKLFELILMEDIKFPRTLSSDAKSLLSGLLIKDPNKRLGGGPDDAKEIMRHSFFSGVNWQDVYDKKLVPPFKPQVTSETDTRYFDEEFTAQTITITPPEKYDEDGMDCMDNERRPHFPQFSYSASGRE
Procedure: as §1

PKA = PKA (Homo sapiens, UniProt P17612); conditions: read-out: Ki or IC50 PKA
Procedure: as §1

ROCK1 = ROCK1 (Homo sapiens, UniProt Q13464); conditions: read-out: Ki or IC50 ROCK1
ROCK1, sequence (Q13464 whole entry, species assumed): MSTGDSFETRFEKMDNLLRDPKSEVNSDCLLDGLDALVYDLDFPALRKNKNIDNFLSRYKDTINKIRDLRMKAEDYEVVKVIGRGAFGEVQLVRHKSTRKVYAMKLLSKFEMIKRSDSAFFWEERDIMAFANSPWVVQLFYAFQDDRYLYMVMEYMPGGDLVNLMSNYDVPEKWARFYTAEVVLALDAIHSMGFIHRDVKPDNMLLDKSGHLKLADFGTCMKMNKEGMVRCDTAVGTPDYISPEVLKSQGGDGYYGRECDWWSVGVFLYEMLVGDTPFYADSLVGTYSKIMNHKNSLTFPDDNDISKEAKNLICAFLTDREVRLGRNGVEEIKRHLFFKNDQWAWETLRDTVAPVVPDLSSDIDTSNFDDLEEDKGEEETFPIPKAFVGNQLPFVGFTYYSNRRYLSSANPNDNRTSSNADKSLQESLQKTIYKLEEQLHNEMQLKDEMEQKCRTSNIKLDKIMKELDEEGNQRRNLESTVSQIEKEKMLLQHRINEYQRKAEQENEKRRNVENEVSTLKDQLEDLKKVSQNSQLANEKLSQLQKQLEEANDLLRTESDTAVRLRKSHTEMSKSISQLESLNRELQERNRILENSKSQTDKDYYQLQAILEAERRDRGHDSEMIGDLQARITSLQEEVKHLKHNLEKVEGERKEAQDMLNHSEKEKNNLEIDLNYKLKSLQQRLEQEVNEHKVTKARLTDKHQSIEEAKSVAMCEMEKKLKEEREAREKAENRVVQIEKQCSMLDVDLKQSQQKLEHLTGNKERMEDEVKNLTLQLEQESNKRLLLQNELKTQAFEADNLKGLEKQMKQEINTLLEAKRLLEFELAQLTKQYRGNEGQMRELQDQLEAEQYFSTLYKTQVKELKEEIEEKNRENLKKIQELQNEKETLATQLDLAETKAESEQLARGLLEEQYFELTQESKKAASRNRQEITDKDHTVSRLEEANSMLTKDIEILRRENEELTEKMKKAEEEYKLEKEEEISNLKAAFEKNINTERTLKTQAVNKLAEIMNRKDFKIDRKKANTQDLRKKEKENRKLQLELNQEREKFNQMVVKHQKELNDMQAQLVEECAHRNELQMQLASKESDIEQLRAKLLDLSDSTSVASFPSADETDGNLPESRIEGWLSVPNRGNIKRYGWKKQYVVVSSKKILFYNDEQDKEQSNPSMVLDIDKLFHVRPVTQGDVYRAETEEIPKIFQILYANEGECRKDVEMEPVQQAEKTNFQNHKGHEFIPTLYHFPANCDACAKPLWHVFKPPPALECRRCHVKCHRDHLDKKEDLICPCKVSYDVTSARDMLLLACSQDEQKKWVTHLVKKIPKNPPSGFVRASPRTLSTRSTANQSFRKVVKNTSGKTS
Procedure: as §1

p38 = p38 (Homo sapiens, UniProt Q16539); conditions: ATP equal to Km, 30°C
p38, sequence (Q16539 whole entry): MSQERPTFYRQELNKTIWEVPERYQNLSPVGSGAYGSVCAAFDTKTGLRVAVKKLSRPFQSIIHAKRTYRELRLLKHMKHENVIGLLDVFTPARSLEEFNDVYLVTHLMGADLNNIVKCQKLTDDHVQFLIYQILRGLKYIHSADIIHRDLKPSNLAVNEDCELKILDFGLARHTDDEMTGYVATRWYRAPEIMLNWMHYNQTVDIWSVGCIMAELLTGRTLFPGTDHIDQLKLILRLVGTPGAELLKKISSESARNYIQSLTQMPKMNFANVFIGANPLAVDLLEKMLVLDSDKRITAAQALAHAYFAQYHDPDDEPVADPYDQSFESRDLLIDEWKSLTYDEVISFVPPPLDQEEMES
Procedure: as §1

PRAK = biological target: T3, PRAK (Homo sapiens, UniProt Q8IW41); conditions: read-out: Ki or IC50 PRAK
T3 sequence (Q8IW41 1-473): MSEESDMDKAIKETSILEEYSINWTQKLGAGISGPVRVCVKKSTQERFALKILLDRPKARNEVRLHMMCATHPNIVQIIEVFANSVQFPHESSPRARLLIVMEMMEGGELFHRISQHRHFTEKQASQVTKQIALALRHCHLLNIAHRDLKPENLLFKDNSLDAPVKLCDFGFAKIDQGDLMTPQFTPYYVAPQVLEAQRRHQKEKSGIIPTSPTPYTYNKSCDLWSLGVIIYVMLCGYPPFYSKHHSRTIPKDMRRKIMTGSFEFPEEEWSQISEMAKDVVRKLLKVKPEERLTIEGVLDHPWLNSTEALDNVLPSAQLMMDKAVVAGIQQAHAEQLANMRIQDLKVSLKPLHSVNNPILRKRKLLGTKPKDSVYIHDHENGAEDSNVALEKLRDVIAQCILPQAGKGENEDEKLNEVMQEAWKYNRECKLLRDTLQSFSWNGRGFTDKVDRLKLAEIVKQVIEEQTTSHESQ
Procedure: as §1

SYK = SYK (Homo sapiens, UniProt P43405); conditions: read-out: Ki or IC50 SYK
Procedure: as §1

KDR = KDR (Homo sapiens, UniProt P35968); conditions: read-out: Ki or IC50 KDR
KDR, sequence (P35968 20-1356, species assumed): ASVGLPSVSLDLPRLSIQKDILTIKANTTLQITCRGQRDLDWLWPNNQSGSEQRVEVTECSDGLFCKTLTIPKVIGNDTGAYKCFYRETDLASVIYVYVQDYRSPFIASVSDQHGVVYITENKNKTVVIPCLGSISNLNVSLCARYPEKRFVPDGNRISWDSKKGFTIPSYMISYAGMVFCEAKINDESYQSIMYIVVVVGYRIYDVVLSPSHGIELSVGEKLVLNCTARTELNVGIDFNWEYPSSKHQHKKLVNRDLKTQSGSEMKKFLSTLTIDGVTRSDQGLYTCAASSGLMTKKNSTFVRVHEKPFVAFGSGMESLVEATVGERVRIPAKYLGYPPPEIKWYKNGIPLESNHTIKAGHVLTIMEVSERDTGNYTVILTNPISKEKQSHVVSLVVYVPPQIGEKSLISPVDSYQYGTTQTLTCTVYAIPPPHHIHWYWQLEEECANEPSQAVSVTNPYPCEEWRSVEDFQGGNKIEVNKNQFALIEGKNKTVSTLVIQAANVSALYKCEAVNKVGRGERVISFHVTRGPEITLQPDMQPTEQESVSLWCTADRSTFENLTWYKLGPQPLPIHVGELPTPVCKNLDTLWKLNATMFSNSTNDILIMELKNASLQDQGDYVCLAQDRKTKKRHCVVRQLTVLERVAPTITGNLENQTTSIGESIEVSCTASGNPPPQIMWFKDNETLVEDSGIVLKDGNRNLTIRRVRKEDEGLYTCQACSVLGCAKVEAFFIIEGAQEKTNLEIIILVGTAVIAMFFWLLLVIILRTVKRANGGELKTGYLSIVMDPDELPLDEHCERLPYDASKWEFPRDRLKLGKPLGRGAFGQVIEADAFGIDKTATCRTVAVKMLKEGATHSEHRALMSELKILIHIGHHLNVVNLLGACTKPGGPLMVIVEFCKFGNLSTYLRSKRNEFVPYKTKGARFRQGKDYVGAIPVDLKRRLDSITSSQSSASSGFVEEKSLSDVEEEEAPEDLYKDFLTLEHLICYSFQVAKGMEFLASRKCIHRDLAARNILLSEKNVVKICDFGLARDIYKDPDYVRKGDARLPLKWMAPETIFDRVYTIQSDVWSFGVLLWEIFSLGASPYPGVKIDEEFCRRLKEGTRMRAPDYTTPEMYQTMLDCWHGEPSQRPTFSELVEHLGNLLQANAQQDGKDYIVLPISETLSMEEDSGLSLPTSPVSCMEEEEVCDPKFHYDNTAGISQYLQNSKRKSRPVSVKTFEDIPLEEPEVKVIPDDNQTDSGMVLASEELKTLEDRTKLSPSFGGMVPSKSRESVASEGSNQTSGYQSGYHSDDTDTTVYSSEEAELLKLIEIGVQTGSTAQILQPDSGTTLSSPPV
Procedure: as §1

GSK3β, sequence (P49841 whole entry, species assumed): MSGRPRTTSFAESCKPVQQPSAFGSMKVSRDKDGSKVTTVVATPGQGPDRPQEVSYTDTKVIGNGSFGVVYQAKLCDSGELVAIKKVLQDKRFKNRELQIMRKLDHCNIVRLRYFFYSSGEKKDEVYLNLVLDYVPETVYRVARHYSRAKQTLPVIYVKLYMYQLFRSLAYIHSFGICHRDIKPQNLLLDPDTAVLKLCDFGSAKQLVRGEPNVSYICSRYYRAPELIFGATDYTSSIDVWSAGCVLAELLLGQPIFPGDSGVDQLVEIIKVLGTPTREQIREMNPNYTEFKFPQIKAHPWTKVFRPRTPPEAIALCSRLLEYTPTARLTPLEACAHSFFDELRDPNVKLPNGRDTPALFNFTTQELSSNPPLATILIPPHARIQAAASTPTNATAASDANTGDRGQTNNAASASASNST

Row | Ki (GSK3β; read-out: GSK3β Ki) [nM] | Ki (MKK4) [nM] | Ki (MKK6) [nM] | Ki (ERK2) [nM] | Ki (AKT3) [nM] | Ki (PKA) [nM] | Ki (ROCK1) [nM] | Ki (p38) [nM] | Ki (PRAK) [nM] | Ki (SYK) [nM] | Ki (KDR) [nM] | Ki (GSK3β; read-out: Ki or IC50 GSK3β) [nM] | IC50 (p38; read-out: IC50 p38 (footnote: this one value is an IC50, not a Ki)) [nM] | SMILES
1 | 730 | > 1000 | > 1000 | > 1000 | > 1000 | > 1000 | > 1000 | 13 | > 1000 | > 1000 | > 1000 | – | – | OC1CCN(Cc2onc(-c3ccc(F)cc3)c2-c2ccnc(NC3CCCCC3)n2)CC1 [V-05-013]
2 | – | > 1000 | > 1000 | > 1000 | > 1000 | > 1000 | > 1000 | 15 | > 1000 | > 1000 | > 1000 | > 1000 | – | OC[C@@H]1CCCN1Cc1onc(-c2ccc(F)cc2)c1-c1ccnc(NC2CCCCC2)n1 [V-05-014]
3 | – | > 1000 | > 1000 | > 1000 | > 1000 | > 1000 | > 1000 | – | > 1000 | > 1000 | > 1000 | > 1000 | 8 | Fc1ccc(-c2noc(CN3CCCCC3)c2-c2ccnc(NC3CCCCC3)n2)cc1 [V-05-015]
